{
  "source": "paper PMC5054527",
  "about": "“Mechanism of high affinity inhibition of the human urate transporter URAT1” (Scientific Reports, 2016)",
  "assay_in_all_cases": "URAT1 uric acid transport activity assay",
  "assay_type_in_all_cases": "cell-based, human/rat",
  "key": {"h-r TM5-C URAT1 chimera": {"biological_target": "T1, h-r TM5-C URAT1 chimera (Homo sapiens, UniProt Q96S37, A249G/A250S/G246V/H245Q)", "T1 construct": "expressed in transfected cells; host or cells: HEK-293T", "T1 sequence (Q96S37 whole entry H245Q/G246V/A249G/A250S)": "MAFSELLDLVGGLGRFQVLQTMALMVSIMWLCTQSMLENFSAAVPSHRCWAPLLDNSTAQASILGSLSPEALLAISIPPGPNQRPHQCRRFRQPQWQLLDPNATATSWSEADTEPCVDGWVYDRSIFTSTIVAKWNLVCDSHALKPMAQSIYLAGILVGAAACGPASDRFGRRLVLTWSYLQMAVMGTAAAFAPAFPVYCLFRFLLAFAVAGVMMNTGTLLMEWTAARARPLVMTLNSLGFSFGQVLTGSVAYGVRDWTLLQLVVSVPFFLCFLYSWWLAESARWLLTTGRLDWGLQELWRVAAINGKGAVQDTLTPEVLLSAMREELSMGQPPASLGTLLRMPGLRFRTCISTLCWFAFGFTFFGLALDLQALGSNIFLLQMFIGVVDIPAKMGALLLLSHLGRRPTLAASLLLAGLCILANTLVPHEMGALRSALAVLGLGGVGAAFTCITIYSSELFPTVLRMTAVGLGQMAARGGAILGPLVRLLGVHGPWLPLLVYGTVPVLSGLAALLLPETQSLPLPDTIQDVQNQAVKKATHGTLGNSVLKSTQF", "conditions": "HEPES pH 7.3, 100 μM 14C-uric acid"}, "h-r TM8 URAT1 chimera": {"biological_target": "T2, h-r TM8 URAT1 chimera (Homo sapiens, UniProt Q96S37, A392V/A396S/F384L/H402R/I390L/M383A/P407L/V387I)", "T2 construct": "expressed in transfected cells; host or cells: HEK-293T", "T2 sequence (Q96S37 whole entry M383A/F384L/V387I/I390L/A392V/A396S/H402R/P407L)": "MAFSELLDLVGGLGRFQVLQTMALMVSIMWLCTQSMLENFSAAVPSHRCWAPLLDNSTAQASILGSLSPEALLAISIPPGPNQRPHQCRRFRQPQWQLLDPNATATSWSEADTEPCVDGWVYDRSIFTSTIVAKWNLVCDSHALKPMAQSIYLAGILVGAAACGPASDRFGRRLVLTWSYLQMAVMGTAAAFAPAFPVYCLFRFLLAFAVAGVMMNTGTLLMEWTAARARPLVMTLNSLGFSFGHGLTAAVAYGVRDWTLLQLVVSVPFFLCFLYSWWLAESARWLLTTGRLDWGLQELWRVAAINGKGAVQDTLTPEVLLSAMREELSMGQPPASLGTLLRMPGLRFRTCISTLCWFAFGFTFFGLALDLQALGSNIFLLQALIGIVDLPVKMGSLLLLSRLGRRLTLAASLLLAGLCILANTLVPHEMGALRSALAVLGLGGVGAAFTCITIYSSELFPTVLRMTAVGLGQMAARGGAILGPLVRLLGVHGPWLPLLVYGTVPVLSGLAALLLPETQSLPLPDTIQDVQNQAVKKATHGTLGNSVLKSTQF", "conditions": "HEPES pH 7.3, 100 μM 14C-uric acid"}, "h-r TM7 URAT1 chimera": {"biological_target": "T3, h-r TM7 URAT1 chimera (Homo sapiens, UniProt Q96S37, C351F/F365Y/T354M)", "T3 construct": "expressed in transfected cells; host or cells: HEK-293T", "T3 sequence (Q96S37 whole entry C351F/T354M/F365Y)": "as the sequence (Q96S37 whole entry H245Q/G246V/A249G/A250S) above, with Q245H, V246G, G249A, S250A, C351F, T354M, F365Y counted along it"}},
  "data": [
    {"smiles": "O=C1C(CC[S+]([O-])c2ccccc2)C(=O)N(c2ccccc2)N1c1ccccc1", "note": "(stereo not shown) [sulfinpyrazone]", "values": [
      {"measurement": "IC50", "setting": "h-r TM5-C URAT1 chimera", "result": "34 ± 4", "unit": "µM"},
      {"measurement": "IC50", "setting": "h-r TM8 URAT1 chimera", "result": "29 ± 13", "unit": "µM"},
      {"measurement": "fold reduced affinity of h-r TM7 compared to hURAT1", "setting": "h-r TM7 URAT1 chimera; from IC50 values", "result": 8, "unit": "fold"},
      {"measurement": "IC50", "setting": "h-r TM7 URAT1 chimera; h-r TM7, HEPES pH 7.3, 100 μM 14C-uric acid", "result": "254 ± 47", "unit": "µM"}
    ]}
  ]
}
